Test results as given in patent US10328075B2, “Method of treatment and compounds for use therein” (Baker Heart and Diabetes Institute, priority 2015, dated 2019).
No end group written: not given here.

Assay: Body and organ weights of mice after myocardial I-R
Format: in vivo, mouse
Conditions: for Body Weight / Organ weight (mg), LV / Organ weight (mg), RV / Organ weight (mg), atria / Organ weight (mg), heart / Organ weight (mg), lung / Organ weight: body weight (mg/g), LV / Organ weight: body weight (mg/g), RV / Organ weight: body weight (mg/g), atria / Organ weight: body weight (mg/g), heart / Organ weight: body weight (mg/g), lung / Effect on total heart weight and LV weight normalized to body weight / Heart weight normalized to body weight versus sham: mice; for Body Weight (BW, g) / Organ weight: BW (mg/g), LV / Organ weight: BW (mg/g), RV / Organ weight: BW (mg/g), atria / Organ weight: BW (mg/g), heart / Organ weight: BW (mg/g), lung / BW: Table 7; for Effect on total heart weight and LV weight normalized to body weight: 7 days reperfusion; for Heart weight normalized to body weight versus sham: 48 h reperfusion
Experimental: Sample collection: After the study period (24 h, 48 h or 7 d), infarcted or sham-operated mice were euthanised, blood was collected by cardiac puncture using a 25G needle and 1 mL syringe coated with heparin (500 U/mL). Plasma was collected from mice after 24 h reperfusion to assess levels of cardiac troponin I (cTnI) levels; whole blood was collected from mice after 48 h reperfusion to assess total and differential white blood cell (WBC) numbers in the circulation. Lungs, atria, left and right ventricles were dissected, blotted dry, and weighed. Left ventricles (LV) were cut in half at the occlusion site, with the upper part fixed in Neutral Buffer Formalin (NBF, Thermo Fisher Scientific, Melbourne, Australia) and the apex placed in Tissue-Tek® optimal cutting temperature (OCT) compound (Tissue-Tek, Torrance, USA) for storage at −80° C.
Body and organ weights were measured to examine effects of drug treatments on systemic and cardiac characteristics in mice subjected to myocardial ischaemia-reperfusion injury or sham operation. Although there was no difference between the two vehicles (10% DMSO) in saline i.v. vs. 10% DMSO containing 0.8% Tween 20 in saline, i.p.), data from these two groups were combined for group analysis.
Assessment of cardiac inflammation in vivo: Lungs, atria, left and right ventricles from mice in Cohort 3 (following 60 min ischemia and 48 h reperfusion, optimal timing for detecting cardiac leukocyte infiltration) were dissected, blotted dry, and weighed. LV were cut in half at the occlusion site, and the apical half placed in Tissue-Tek® optimal cutting temperature compound (Tissue-Tek, Torrance, USA) for storage at −80° C. LV tissues were then sectioned at 6 μm for immunofluorescent detection of cardiac macrophage and neutrophil content. Sections were pre-incubated with 4% paraformaldehyde for 20 min and 10% normal goat serum for a further 30 min. Sections were then incubated at RT with either CD68+ primary antibody or Ly-6B.2 primary antibody (1:200, ABD Serotec, Raleigh, USA) for 1 h, followed by 30 min incubation with the Alexa Fluor 546 secondary antibody (1:200, Invitrogen, Carlsbad, USA). Finally, sections were incubated with 0.001% Hoechst 33342 (Invitrogen, Melbourne, Australia) for 30 min, to elicit nuclear staining. Single images were photographed using a Nikon A1R confocal microscope (Nikon Instruments Inc., NY, USA) under 20× magnification, and 9×9 single images were then automatically stitched together using NIS-Elements AR software (version 4.10 for Windows, Nikon Instruments Inc., NY, USA) to form each complete composite LV image. The images for infarct area were captured under 40× magnification, and the stitched images were then analyzed using Fiji software (version 1.48c for Max OS X, National Institutes of Health, USA). The threshold was set for each image, to enable optimal sensing and quantification of red fluorescence intensity above threshold, and the software then automatically quantified these red fluorescent signals.

CC(C)C1C(NC(=O)Nc2ccc(Cl)cc2)C(=O)N(c2ccccc2)N1C (stereo not drawn) [BIDI-002]
Body Weight (Table 5, 48 h myocardial I-R): 27 ± 0.6 g
Organ weight (mg), LV (Table 5, 48 h myocardial I-R): 94.9 ± 7.5 mg
Organ weight (mg), RV (Table 5, 48 h myocardial I-R): 22.9 ± 1.7 mg
Organ weight (mg), atria (Table 5, 48 h myocardial I-R): 9.9 ± 2.8 mg
Organ weight (mg), heart (Table 5, 48 h myocardial I-R): 132 ± 11 mg
Organ weight (mg), lung (Table 5, 48 h myocardial I-R): 154 ± 6 mg
Organ weight: body weight (mg/g), LV (Table 5, 48 h myocardial I-R): 3.5 ± 0.2 mg/g
Organ weight: body weight (mg/g), RV (Table 5, 48 h myocardial I-R): 0.8 ± 0.0 mg/g
Organ weight: body weight (mg/g), atria (Table 5, 48 h myocardial I-R): 0.5 ± 0.1 mg/g
Organ weight: body weight (mg/g), heart (Table 5, 48 h myocardial I-R): 4.8 ± 0.3 mg/g
Organ weight: body weight (mg/g), lung (Table 5, 48 h myocardial I-R): 5.7 ± 0.1 mg/g
Body Weight (Table 6, 7 d myocardial I-R): 23.8 ± 0.9 g
Organ weight (mg), LV (Table 6, 7 d myocardial I-R): 89.0 ± 4.2 mg
Organ weight (mg), RV (Table 6, 7 d myocardial I-R): 21.4 ± 1.6 mg
Organ weight (mg), atria (Table 6, 7 d myocardial I-R): 7.8 ± 0.5 mg
Organ weight (mg), heart (Table 6, 7 d myocardial I-R): 118 ± 6 mg
Organ weight (mg), lung (Table 6, 7 d myocardial I-R): 138 ± 7 mg
Organ weight: body weight (mg/g), LV (Table 6, 7 d myocardial I-R): 3.7 ± 0.1 mg/g
Organ weight: body weight (mg/g), RV (Table 6, 7 d myocardial I-R): 0.9 ± 0.1 mg/g
Organ weight: body weight (mg/g), atria (Table 6, 7 d myocardial I-R): 0.3 ± 0.0 mg/g
Organ weight: body weight (mg/g), heart (Table 6, 7 d myocardial I-R): 5.0 ± 0.2 mg/g
Organ weight: body weight (mg/g), lung (Table 6, 7 d myocardial I-R): 5.8 ± 0.3 mg/g
Body Weight (BW, g) (48 h myocardial I-R): 27 ± 1 g
Organ weight: BW (mg/g), LV (48 h myocardial I-R): 3.5 ± 0.2 mg/g
Organ weight: BW (mg/g), RV (48 h myocardial I-R): 0.8 ± 0.0 mg/g
Organ weight: BW (mg/g), atria (48 h myocardial I-R): 0.5 ± 0.1 mg/g
Organ weight: BW (mg/g), heart (48 h myocardial I-R): 4.8 ± 0.3 mg/g
Organ weight: BW (mg/g), lung (48 h myocardial I-R): 5.7 ± 0.1 mg/g
BW (7 days myocardial I-R): 24 ± 1 g
Organ weight: BW (mg/g), LV (7 days myocardial I-R): 3.7 ± 0.1 mg/g
Organ weight: BW (mg/g), RV (7 days myocardial I-R): 0.9 ± 0.1 mg/g
Organ weight: BW (mg/g), atria (7 days myocardial I-R): 0.3 ± 0.0 mg/g
Organ weight: BW (mg/g), heart (7 days myocardial I-R): 5.0 ± 0.2 mg/g
Organ weight: BW (mg/g), lung (7 days myocardial I-R): 5.8 ± 0.3 mg/g
Effect on total heart weight and LV weight normalized to body weight: not
Effect on total heart weight and LV weight normalized to body weight (listed as Cmpd43): not shared

COc1cccc(Cc2cc(C)nn(C(C)C(=O)Nc3ccc(Br)cc3)c2=O)c1 (stereo not drawn) [BIDI-001, N-(4-bromophenyl)-2-[5-(3-methoxybenzyl)-3-methyl-6-oxo-6H-pyridazin-1-yl]-propionamide]
Body Weight (Table 5, 48 h myocardial I-R): 28.2 ± 1.0 g
Organ weight (mg), LV (Table 5, 48 h myocardial I-R): 105.0 ± 8.3 mg
Organ weight (mg), RV (Table 5, 48 h myocardial I-R): 24.9 ± 3.1 mg
Organ weight (mg), atria (Table 5, 48 h myocardial I-R): 14.6 ± 1.2 mg
Organ weight (mg), heart (Table 5, 48 h myocardial I-R): 147 ± 11 mg
Organ weight (mg), lung (Table 5, 48 h myocardial I-R): 157 ± 6 mg
Organ weight: body weight (mg/g), LV (Table 5, 48 h myocardial I-R): 3.7 ± 0.2 mg/g
Organ weight: body weight (mg/g), RV (Table 5, 48 h myocardial I-R): 1.0 ± 0.0 mg/g
Organ weight: body weight (mg/g), atria (Table 5, 48 h myocardial I-R): 0.5 ± 0.0 mg/g
Organ weight: body weight (mg/g), heart (Table 5, 48 h myocardial I-R): 5.2 ± 0.3 mg/g
Organ weight: body weight (mg/g), lung (Table 5, 48 h myocardial I-R): 5.6 ± 0.2 mg/g
Body Weight (Table 6, 7 d myocardial I-R): 24.3 ± 0.5 g
Organ weight (mg), LV (Table 6, 7 d myocardial I-R): 70.1 ± 2.9 mg
Organ weight (mg), RV (Table 6, 7 d myocardial I-R): 19.0 ± 1.0 mg
Organ weight (mg), atria (Table 6, 7 d myocardial I-R): 7.3 ± 0.8 mg
Organ weight (mg), heart (Table 6, 7 d myocardial I-R): 96 ± 4 mg
Organ weight (mg), lung (Table 6, 7 d myocardial I-R): 132 ± 3 mg
Organ weight: body weight (mg/g), LV (Table 6, 7 d myocardial I-R): 2.9 ± 0.1 mg/g
Organ weight: body weight (mg/g), RV (Table 6, 7 d myocardial I-R): 0.8 ± 0.3 mg/g
Organ weight: body weight (mg/g), atria (Table 6, 7 d myocardial I-R): 0.3 ± 0.0 mg/g
Organ weight: body weight (mg/g), heart (Table 6, 7 d myocardial I-R): 4.0 ± 0.1 mg/g
Organ weight: body weight (mg/g), lung (Table 6, 7 d myocardial I-R): 4.7 ± 0.7 mg/g
Body Weight (BW, g) (48 h myocardial I-R): 28 ± 1 g
Organ weight: BW (mg/g), LV (48 h myocardial I-R): 3.7 ± 0.2 mg/g
Organ weight: BW (mg/g), RV (48 h myocardial I-R): 1.0 ± 0.0 mg/g
Organ weight: BW (mg/g), atria (48 h myocardial I-R): 0.5 ± 0.0 mg/g
Organ weight: BW (mg/g), heart (48 h myocardial I-R): 5.2 ± 0.3 mg/g
Organ weight: BW (mg/g), lung (48 h myocardial I-R): 5.6 ± 0.2 mg/g
BW (7 days myocardial I-R): 24 ± 1 g
Organ weight: BW (mg/g), LV (7 days myocardial I-R): 2.9 ± 0.1 mg/g
Organ weight: BW (mg/g), RV (7 days myocardial I-R): 0.8 ± 0.3 mg/g
Organ weight: BW (mg/g), atria (7 days myocardial I-R): 0.3 ± 0.0 mg/g
Organ weight: BW (mg/g), heart (7 days myocardial I-R): 4.0 ± 0.1 mg/g
Organ weight: BW (mg/g), lung (7 days myocardial I-R): 5.4 ± 0.1 mg/g
Heart weight normalized to body weight versus sham: significantly increased
Effect on total heart weight and LV weight normalized to body weight: significantly reduced

Ac2-26: Annexin-A1 N-terminal peptide, peptide ANX-A1 mimetic (Ac-AMVSEFLKQAWFIENEEQEYVQTVK; UniProt P04083 2-26, looked up, fragment)
Body Weight (Table 5, 48 h myocardial I-R): 28.2 ± 1.0 g
Organ weight (mg), LV (Table 5, 48 h myocardial I-R): 109.8 ± 5.5 mg
Organ weight (mg), RV (Table 5, 48 h myocardial I-R): 24.3 ± 0.9 mg
Organ weight (mg), atria (Table 5, 48 h myocardial I-R): 10.1 ± 0.7 mg
Organ weight (mg), heart (Table 5, 48 h myocardial I-R): 144 ± 6 mg
Organ weight (mg), lung (Table 5, 48 h myocardial I-R): 145 ± 9 mg
Organ weight: body weight (mg/g), LV (Table 5, 48 h myocardial I-R): 3.8 ± 0.2 mg/g
Organ weight: body weight (mg/g), RV (Table 5, 48 h myocardial I-R): 0.8 ± 0.0 mg/g
Organ weight: body weight (mg/g), atria (Table 5, 48 h myocardial I-R): 0.3 ± 0.0 mg/g
Organ weight: body weight (mg/g), heart (Table 5, 48 h myocardial I-R): 5.0 ± 0.2 mg/g
Organ weight: body weight (mg/g), lung (Table 5, 48 h myocardial I-R): 5.0 ± 0.3 mg/g
Body Weight (Table 6, 7 d myocardial I-R): 25.6 ± 1.0 g
Organ weight (mg), LV (Table 6, 7 d myocardial I-R): 102.9 ± 6.5 mg
Organ weight (mg), RV (Table 6, 7 d myocardial I-R): 17.8 ± 2.4 mg
Organ weight (mg), atria (Table 6, 7 d myocardial I-R): 8.3 ± 1.0 mg
Organ weight (mg), heart (Table 6, 7 d myocardial I-R): 129 ± 10 mg
Organ weight (mg), lung (Table 6, 7 d myocardial I-R): 147 ± 7 mg
Organ weight: body weight (mg/g), LV (Table 6, 7 d myocardial I-R): 4.0 ± 0.2 mg/g
Organ weight: body weight (mg/g), RV (Table 6, 7 d myocardial I-R): 0.7 ± 0.1 mg/g
Organ weight: body weight (mg/g), atria (Table 6, 7 d myocardial I-R): 0.3 ± 0.0 mg/g
Organ weight: body weight (mg/g), heart (Table 6, 7 d myocardial I-R): 5.0 ± 0.2 mg/g
Organ weight: body weight (mg/g), lung (Table 6, 7 d myocardial I-R): 5.7 ± 0.2 mg/g
Heart weight normalized to body weight versus sham: significantly increased
Effect on total heart weight and LV weight normalized to body weight: not
